Entries after “also recorded” stand apart in the source; their conditions may differ.
Columns and labels:
Rats = assay: Observation of rats over 48 hours after oral dosing; assay type: in vivo
Experimental: (§1) Bioavailability: One gram samples of each of the above iron vanillin chelates and ferrous sulfate sales were administered orally to rats as a slurry consisting of one gram of sample contained in 4 ml of water. The samples were given via a syringe fitted with a balled needle and injected into the stomach of the animals. Each one gram sample of 15% iron would deliver 150 mg of Fe which is ten times the recommended daily allowance of iron for a human being of average size. Obviously, such a dosage is many times higher than required for the test animals considering that the rats weighed an average of about 125 grams each. One sample of two grams of chelate suspended as a slurry in 8 ml of water was found too be too much volume and overfilled the stomach of the rat resulting in the loss of some of the dosage.
(§2) The animals were observed over a two day (48 hour) period and their urine and feces were collected. At the end of the 48 hour period the animals were sacrificed and blood samples were taken.

[1] = Iron excretion in urine after oral dosing, sample in ml (Table 3); assay type: in vivo, rats; conditions: one gram sample of 15% iron
Experimental: as §1, §2
(§3) There follows a comparison of the urine, feces and blood tests taken from the rats at 24 and 48 hours post dosage.

[2] = Iron excretion after oral dosing, sample weighed in grams (Table 2, headed Urine; evidently feces); assay type: in vivo, rats; conditions: for Urine: Total Mg Fe (per Total Gm Sample): oral, one gram sample of 15% iron
Experimental: as §1, §2, §3

ferrous sulfate [FeSO4]
appearance and behavior of rats (Rats; 48 hour period, one gram sample of 15% iron, oral): appeared listless and produced little urine and feces; also recorded: listless, non-reactive, retired and demonstrated abnormal breathing behavior
time without food or water consumption post dosage (Rats; one gram sample of 15% iron, oral): approximately 26 hours
time to hematuria following dosage (Rats; one of the ferrous sulfate fed rats): ≤ 2.5 h
Urine: Total Mg Fe (per Total Ml Sample) ([1]; 24 hours): 0.020 Mg Fe
Urine: Total Mg Fe (per Total Ml Sample) ([1]; 48 hours): 0.010 Mg Fe
Urine: Total Mg Fe (per Total Gm Sample) ([2]; 24 hours): 1.18 Mg Fe
Urine: Total Mg Fe (per Total Gm Sample) ([2]; 48 hours): 61.6 Mg Fe
excretion of iron in the feces ([2]; after 48 hours, versus iron vanillate): much higher excretion of iron in the feces

Reference: patent publication US5596016A, “1,2-disubstituted aromatic chelates” (Albion International, Inc., priority 1994, dated 1997)
